Measured values from US20170105979A1, “USE OF A TORASEMIDE-BASED VETERINARY COMPOSITION FOR LOW-DOSE ADMINISTERING” (VIRBAC, priority 2014, published 2017).
Where two headings read alike, the source gives them in different places. Each block holds one compound with its values, some of them ahead of it.

Columns and labels:
[1] = urinary sodium clearance in healthy female Beagle dogs; assay type: in vivo
Procedure: Several criteria were evaluated in order to determine the efficacy of this dosage: • urine volume • water consumption • urinary sodium clearance • urinary potassium clearance • osmolar clearance • free-water clearance • urinary fraction excretion of sodium • urinary fraction excretion of potassium. […] The following measurements are carried out: • →urine: volume, pH, creatinine, osmolarity, sodium, potassium; • →plasma: sodium, potassium, urea, aldosterone. In this experiment, torasemide is tested at two single doses: 0.05 mg/kg or 0.5 mg/kg for a daily administration for three weeks. The continuous administration of diuretics causes a net deficit of sodium ions in the body, but renal compensation mechanisms adjust sodium excretion in line with sodium intake. This phenomenon is known as “diuretic braking”. […] In the experimental studies described above, carried out on healthy dogs, the modification of urinary sodium excretion by torasemide is evaluated by calculating urinary sodium clearance according to the following equation: Urinary sodium concentration×total urine volume/plasma sodium concentration

[2] = urine volume over 24 h in treated healthy dogs; assay type: in vivo, female Beagle dogs; conditions: FIG. 3
Procedure: (§1) Several criteria were evaluated in order to determine the efficacy of this dosage: • urine volume • water consumption • urinary sodium clearance • urinary potassium clearance • osmolar clearance • free-water clearance • urinary fraction excretion of sodium • urinary fraction excretion of potassium. […] The following measurements are carried out: • →urine: volume, pH, creatinine, osmolarity, sodium, potassium; • →plasma: sodium, potassium, urea, aldosterone.

[3] = water consumption over 24 h in treated healthy dogs; assay type: in vivo, female Beagle dogs; conditions: FIG. 4
Procedure: as §1

[4] = urinary potassium clearance in treated healthy dogs; assay type: in vivo, female Beagle dogs; conditions: first day of treatment, low-dose torasemide compared with other treatments; FIG. 5
Procedure: as §1, with “aldosterone. The excretion of potassium ions in the urine of the treated dogs was measured over a period of 24 hours, and is presented in FIG. 5.” for “aldosterone.”

[5] = plasma creatinine and creatinine clearance (innocuousness); assay type: in vivo, female Beagle dogs; conditions: torasemide 0.05 mg/kg/day
Procedure: Other criteria were evaluated in order to determine the safety of this dosage: • plasma creatinine • creatinine clearance • plasma urea • plasma aldosterone. […] The following measurements are carried out: • →urine: volume, pH, creatinine, osmolarity, sodium, potassium; • →plasma: sodium, potassium, urea, aldosterone.

[6] = plasma urea concentration (innocuousness); assay type: in vivo, female Beagle dogs; conditions: FIG. 7
[7] = plasma aldosterone concentration (innocuousness); assay type: in vivo, female Beagle dogs; conditions: FIG. 8
[8] = urinary fractional excretion of sodium (FENa) in healthy dogs; assay type: in vivo, female Beagle dogs; conditions: single (0.05 or 0.5 mg/kg) and repeated administrations for three weeks; FIGS. 9 and 10
Excerpt: One of the solutions for making the link between clinical and experimental is the calculation of the fractional excretion of sodium. This value is the ratio of the urinary sodium clearance to the urinary creatinine clearance. It requires assaying the creatinine in the plasma and in the urine, and also assaying the sodium in the plasma and the urine also, which is entirely envisionable “in the field”. This fractional excretion of sodium (FENa) represents the percentage of sodium filtered by the kidney that is finally excreted in the urine. It is determined using equation 1 below: where Naurine and […] are the sodium concentrations in the urine and the plasma, respectively, and Creatinineplasma and Creatinineurine are the creatinine concentrations in the plasma and the urine, respectively. The fractional excretion of sodium is the sodium excretion divided by the glomerular filtration rate (GFR), the GFR being estimated by the creatinine clearance.

[9] = single administration, healthy rats and dogs; cited from earlier work
[10] = prolonged treatments of 14 days; torasemide 0.4 mg/kg/day; cited from earlier work
[11] = cited from earlier work
[12] = 0.2 mg/kg/day in the morning for 28 days, dogs with congestive heart failure; cited from earlier work
[13] = 7 days, cited from earlier work; for clinical state of the disease: furosemide 5.13 mg/kg/day or torasemide 0.5 mg/kg/day, oral twice-daily
[14] = high dose of torasemide (0.5 mg/kg/day), D18 and D28
[15] = low dose of torasemide (0.05 mg/kg/day)

plasma creatinine concentration ([5]; whatever the day of the sample): no effect
creatinine clearance ([5]; FIG. 6): no effect
plasma urea concentration [6, 14]: increase
increase in plasma urea concentration [6, 15]: not observed
plasma aldosterone concentration [7, 14]: increase
increase in plasma aldosterone concentration [7, 15]: not observed
SMILES: Cc1cccc(Nc2ccncc2S(=O)(=O)NC(=O)NC(C)C)c1 [torasemide, N-[(isopropyl-amino)carbonyl]-4-[(3-methylphenyl)amino]pyridine-3-sulfonamide]
diuretic braking effect ([1]; dogs in good health, single dose of 0.5 mg/kg): occurs
net effect over the course of 24 hours on urinary sodium clearance ([1]; repeated administrations, high dose of torasemide 0.5 mg/kg/day, FIG. 2): no net effect
effect on urinary sodium clearance ([1]; repeated administrations, low dose of torasemide 0.05 mg/kg, D7, D18, D28, FIG. 2): effect that was clearly visible
overall effect on sodium clearance over the course of 24 hours ([1]; single dose, low dose 0.05 mg/kg compared with high dose 0.5 mg/kg, FIG. 1): higher than the overall effect of the high dose of torasemide (0.5 mg/kg)
urine volume ([2]; torasemide 0.05 mg/kg/day, D7, D18, D28): do not show any change
urine volume ([2]; torasemide 0.5 mg/kg/day, from first day (D7), maintained over three weeks): clear increase
water consumption over a period of 24 h ([3]; torasemide 0.05 mg/kg/day): only a small change
water consumption over a period of 24 h ([3]; torasemide 0.5 mg/kg/day, especially D18 and D28): clear increase
effect on potassium ion excretion in the urine [4]: lower than with the other treatments
fractional excretion of sodium [8]: in agreement with those obtained by directly measuring the urinary sodium clearance
dose-effect relationship for diuretic effect and ion secretion [9]: relationship between the dose administered and the size of the diuretic effect and of the ion secretion
diuretic resistance [10]: this resistance does not occur
plasma creatinine concentrations [10]: increase in plasma creatinine concentrations
potassium excretion in the urine ([11]; sick dogs, after 7 days, compared with furosemide): less than that observed for the dogs treated with furosemide
persistence of the diuretic effect ([11]; torasemide 0.2 mg/kg): 12 h
potassium excretion in the urine [12]: increased
sodium excretion [12]: not increased
clinical state of the disease [13]: maintain the disease in a stable state
diuretic effect compared with furosemide ([13]; torasemide 0.5 mg/kg/day vs furosemide 5.13 mg/kg/day): better diuretic effect

SMILES: NS(=O)(=O)c1cc(C(=O)O)c(NCc2ccco2)cc1Cl [furosemide]
urine volume ([2]; furosemide 5 mg/kg/day, from first day (D7), maintained over three weeks): clear increase
water consumption over a period of 24 h ([3]; furosemide 5 mg/kg/day, especially D18 and D28): clear increase
dose-effect relationship for diuretic effect and ion secretion [9]: relationship between the dose administered and the size of the diuretic effect and of the ion secretion
diuretic resistance [10]: develop “diuretic resistance”
time after administration at which the diuretic effect decreases ([11]; furosemide): 6 h
time after administration at which the diuretic effect appears ([11]; torasemide 0.2 mg/kg): approximately 1 hours
clinical state of the disease [13]: maintain the disease in a stable state
